These results are taken from patent publication US20140080810A1 (Exelixis, Inc., priority 2010, published 2014).

Each structure is given as a SMILES string. Where only a bound is given, the exact number is not on record here.

The target in one test is mTOR/GbL/Raptor (mTORC1) (Homo sapiens, UniProt P42345). As to the kind of experiment: mTOR/GbL/Raptor (mTORC1) ELISA Assay. The following applies: 4E-BP1 phosphorylation, 0.2 nM mTORC1, 10 μM ATP; last bin: >= 2,000 nM or not active under the conditions the assay was run; read-out: IC50 in this assay (mTORC1). Type of test: biochemical. As to the method:
The measurement of mTORC1 enzyme activity was performed in an ELISA assay format following the phosphorylation of 4E-BP1 protein. All experiments were performed in the 384-well format. Generally, 0.5 μL DMSO containing varying concentrations of the test Compound was mixed with 15 μL enzyme solution. Kinase reactions were initiated with the addition of 15 μL of substrates-containing solution. The assay conditions were as follows; 0.2 nM mTORC1, 10 μM ATP and 50 nM NHis-tagged 4E-BPI in 20 mM Hepes, pH 7.2, 1 mM DTT, 50 mM NaCl, 10 mM MnCl2, 0.02 mg/mL BSA, 0.01% CHAPS, 50 mM β-glycerophosphate. Following an incubation of 120 minutes at ambient temperature, 20 μL of the reaction volume was transferred to a Ni-Chelate-coated 384-well plate. The binding step of the 4E-BP1 protein proceeded for 60 minutes, followed by washing 4 times each with 50 μL of Tris-buffered saline solution (TBS). Anti-phospho-4E-BP1 rabbit-IgG (20 μL, 1:5000) in 5% BSA-TBST (0.2% Tween-20 in TBS) was added and further incubated for 60 minutes. Incubation with a secondary HRP-tagged anti-IgG was similarly performed after washing off the primary antibody (4 washes of 50 μL). Following the final wash step with TBST, 20 μL of SuperSignal ELISA Femto (Pierce Biotechnology) was added and the luminescence measured using an EnVision plate reader.
Usually IC50 stands for the concentration that gives 50% inhibition. Regarding `Cc1nc2ccc(-c3ccc4c(c3)CN(c3ccncn3)CCO4)cc2[nH]1` [Compound 2, 7-(2-methyl-1H-benzimidazol-6-yl)-4-pyrimidin-4-yl-2,3,4,5-tetrahydro-1,4-benzoxazepine], the IC50 is at least 2 µM.
As to `Cc1nc2ccc(-c3ccc4c(c3)CN(c3ncnc5ccc(Br)cc35)CCO4)cc2[nH]1` [Compound 12, 4-(6-bromoquinazolin-4-yl)-7-(2-methyl-1H-benzimidazol-6-yl)-2,3,4,5-tetrahydro-1,4-benzoxazepine], the IC50 is at most 0.01 µM.
As for `Cc1nc2ccc(-c3ccc4c(c3)CN(c3ncnc5ccc(Cl)cc35)CCO4)cc2[nH]1` [Compound 13, 4-(6-chloroquinazolin-4-yl)-7-(2-methyl-1H-benzimidazol-6-yl)-2,3,4,5-tetrahydro-1,4-benzoxazepine], the IC50 is at most 0.01 µM.
Still for that read-out and setting: for `Cc1nc2ccc(-c3ccc4c(c3)CN(c3ncnc5c(Br)cccc35)CCO4)cc2[nH]1` [Compound 25, 4-(8-bromoquinazolin-4-yl)-7-(2-methyl-1H-benzimidazol-6-yl)-2,3,4,5-tetrahydro-1,4-benzoxazepine] the value was 0.05 to 0.25 µM; for `Cn1cnc2cc(-c3ccc4c(c3)CN(c3ccnc5ccccc35)CCO4)ccc21` [Compound 130, 7-(1-methyl-1H-benzimidazol-5-yl)-4-quinolin-4-yl-2,3,4,5-tetrahydro-1,4-benzoxazepine], 0.25 to 1 µM; for `Cn1ccc2cc(-c3ccc4c(c3)CN(c3ccnc5ccccc35)CCO4)ccc21` [Compound 133, 7-(1-methyl-1H-indol-5-yl)-4-quinolin-4-yl-2,3,4,5-tetrahydro-1,4-benzoxazepine], 1 to 2 µM.
On the same count and under the same terms, with `CC1(C)CCc2ncnc(N3CCOc4ccc(-c5ccc6nc[nH]c6c5)cc4C3)c2C1` [Compound 219, 7-(1H-benzimidazol-6-yl)-4-(6,6-dimethyl-5,6,7,8-tetrahydroquinazolin-4-yl)-2,3,4,5-tetrahydro-1,4-benzoxazepine] the figure was at most 0.01 µM; with `COC(=O)Nc1nc2ccc(-c3ccc4c(c3)CN(c3ncnc5c3CC(C)(C)CC5)CCO4)cc2[nH]1` [Compound 235, methyl {6-[4-(6,6-dimethyl-5,6,7,8-tetrahydroquinazolin-4-yl)-2,3,4,5-tetrahydro-1,4-benzoxazepin-7-yl]-1H-benzimidazol-2-yl}carbamate], 0.05 to 0.25 µM.
Still for that read-out and setting: for `CCNc1nc2ccc(-c3ccc4c(c3)CN(c3nc(C)nc5cc(O)ccc35)CCO4)cc2[nH]1` [Compound 285, 4-{7-[2-(ethylamino)-1H-benzimidazol-6-yl]-2,3-dihydro-1,4-benzoxazepin-4(5H)-yl}-2-methylquinazolin-7-ol] the value was 0.05 to 0.25 µM; for `Cc1nc2cc(-c3ccc4c(c3)CN(c3nc(CN(C)C)nc(C)c3C)CCO4)cnc2[nH]1` [Compound 335, 1-{4,5-dimethyl-6-[7-(2-methyl-3H-imidazo[4,5-b]pyridin-6-yl)-2,3-dihydro-1,4-benzoxazepin-4(5H)-yl]pyrimidin-2-yl}-N,N-dimethylmethanamine], 1 to 2 µM.
In the case of `Cc1nc2ccc(-c3ccc4c(c3)CN(c3nc(C(C)(C)O)nc5c3CC(C)(C)CC5)CCO4)cc2[nH]1` [Compound 362, 2-{6,6-dimethyl-4-[7-(2-methyl-1H-benzimidazol-6-yl)-2,3-dihydro-1,4-benzoxazepin-4(5H)-yl]-5,6,7,8-tetrahydroquinazolin-2-yl}propan-2-ol], the IC50 lay in the range of 0.05 to 0.25 µM.
With `CC1(C)CCc2ncnc(N3CCOc4ccc(-c5cnc(N)c(S(=O)(=O)N6CCC(N)C6)c5)cc4C3)c2C1` (stereo not shown) [Compound 445, 3-[(3-aminopyrrolidin-1-yl)sulfonyl]-5-[4-(6,6-dimethyl-5,6,7,8-tetrahydroquinazolin-4-yl)-2,3,4,5-tetrahydro-1,4-benzoxazepin-7-yl]pyridin-2-amine], the IC50 lay within 0.01 to 0.05 µM.
On to `CC(C)(O)CCS(=O)(=O)c1cc(-c2ccc3c(c2)CN(c2ncnc4c2CC(C)(C)CC4)CCO3)cnc1N` [Compound 459, 4-({2-amino-5-[4-(6,6-dimethyl-5,6,7,8-tetrahydroquinazolin-4-yl)-2,3,4,5-tetrahydro-1,4-benzoxazepin-7-yl]pyridin-3-yl}sulfonyl)-2-methylbutan-2-ol], for which the IC50 was 0.05 to 0.25 µM.
Still for that read-out and setting: with `Cc1nc2cc(-c3ccc4c(c3)CN(c3nc(C5CCCN5)nc5c3CC(C)(C)CC5)CCO4)cnc2[nH]1` (stereo not shown) [Compound 474, 4-(6,6-dimethyl-2-pyrrolidin-2-yl-5,6,7,8-tetrahydroquinazolin-4-yl)-7-(2-methyl-3H-imidazo[4,5-b]pyridin-6-yl)-2,3,4,5-tetrahydro-1,4-benzoxazepine] the figure was at most 0.01 µM; with `CC1(C)CCc2ncnc(N3CCOc4ccc(-c5cnc6c(c5)OCCN6)cc4C3)c2C1` [Compound 569, 7-(3,4-dihydro-2H-pyrido[3,2-b][1,4]oxazin-7-yl)-4-(6,6-dimethyl-5,6,7,8-tetrahydroquinazolin-4-yl)-2,3,4,5-tetrahydro-1,4-benzoxazepine], 0.05 to 0.25 µM; with `CC1(C)CCc2ncnc(N3CCOc4ccc(-c5cnc(NCc6ccccc6)c(NS(C)(=O)=O)c5)cc4C3)c2C1` [Compound 630, N-{5-[4-(6,6-dimethyl-5,6,7,8-tetrahydroquinazolin-4-yl)-2,3,4,5-tetrahydro-1,4-benzoxazepin-7-yl]-2-[(phethylmethyl)amino]pyridin-3-yl}methanesulfonamide], at least 2 µM.
The same measure, in the same setting: for `CCNc1nc2ccc(-c3ccc4c(c3)CN(c3cc(C)nc5cc(F)ccc35)CCO4)cc2[nH]1` [Compound 641, N-ethyl-6-[4-(7-fluoro-2-methylquinolin-4-yl)-2,3,4,5-tetrahydro-1,4-benzoxazepin-7-yl]-1H-benzimidazol-2-amine] the value was 0.05 to 0.25 µM.
Regarding `Cc1nc2cc(-c3ccc4c(c3)CN(c3nc(N)nc(C)c3Cc3ccc(F)cc3)CCO4)ccc2[nH]1` [Compound 660, 5-[(4-fluorophenyl)methyl]-4-methyl-6-[7-(2-methyl-1H-benzimidazol-5-yl)-2,3-dihydro-1,4-benzoxazepin-4(5H)-yl]pyrimidin-2-amine], the IC50 was at most 0.01 µM.

For the next test, the target named is PI3Kα (Homo sapiens, UniProt P42336). The experiment in a line: PI3K Biochemical Assay (ATP consumed, luciferase-luciferin chemiluminescence). The note with it: 1 μM ATP, 10 μM PIP2; last bin: >= 2,000 nM or not active under the conditions the assay was run; read-out: IC50 for PI3Kα in this assay. As to the method: PI3Kα activity is measured as the percent of ATP consumed following the kinase reaction using luciferase-luciferin-coupled chemiluminescence. Reactions were conducted in 384-well white, medium binding microtiter plates (Greiner). Kinase reactions were initiated by combining test compounds, ATP, substrate (PIP2), and kinase in a 20 μL volume in a buffer solution. The standard PI3Kalpha assay buffer is composed 50 mM Tris, pH 7.5, 1 mM EGTA, 10 mM MgCl2, 1 mM DTT and 0.03% CHAPS. The standard assay concentrations for enzyme, ATP, and substrate are 1.5 nM, 1 μM, and 10 μM, respectively. The reaction mixture was incubated at ambient temperature for approximately 2 h. Following the kinase reaction, a 10 μL aliquot of luciferase-luciferin mix (Promega Kinase-Glo) was added and the chemiluminescence signal measured using a Victor2 plate reader (Perkin Elmer). Total ATP consumption was limited to 40-60% and IC50 values of control compounds correlate well with literature references. Substituting PI3Kα with PI3Kβ, PI3Kγ, or PI3Kδ, the inhibitory activity of the compounds for the other isoforms of I3K were measured.
PI3Kα, sequence (P42336 whole entry): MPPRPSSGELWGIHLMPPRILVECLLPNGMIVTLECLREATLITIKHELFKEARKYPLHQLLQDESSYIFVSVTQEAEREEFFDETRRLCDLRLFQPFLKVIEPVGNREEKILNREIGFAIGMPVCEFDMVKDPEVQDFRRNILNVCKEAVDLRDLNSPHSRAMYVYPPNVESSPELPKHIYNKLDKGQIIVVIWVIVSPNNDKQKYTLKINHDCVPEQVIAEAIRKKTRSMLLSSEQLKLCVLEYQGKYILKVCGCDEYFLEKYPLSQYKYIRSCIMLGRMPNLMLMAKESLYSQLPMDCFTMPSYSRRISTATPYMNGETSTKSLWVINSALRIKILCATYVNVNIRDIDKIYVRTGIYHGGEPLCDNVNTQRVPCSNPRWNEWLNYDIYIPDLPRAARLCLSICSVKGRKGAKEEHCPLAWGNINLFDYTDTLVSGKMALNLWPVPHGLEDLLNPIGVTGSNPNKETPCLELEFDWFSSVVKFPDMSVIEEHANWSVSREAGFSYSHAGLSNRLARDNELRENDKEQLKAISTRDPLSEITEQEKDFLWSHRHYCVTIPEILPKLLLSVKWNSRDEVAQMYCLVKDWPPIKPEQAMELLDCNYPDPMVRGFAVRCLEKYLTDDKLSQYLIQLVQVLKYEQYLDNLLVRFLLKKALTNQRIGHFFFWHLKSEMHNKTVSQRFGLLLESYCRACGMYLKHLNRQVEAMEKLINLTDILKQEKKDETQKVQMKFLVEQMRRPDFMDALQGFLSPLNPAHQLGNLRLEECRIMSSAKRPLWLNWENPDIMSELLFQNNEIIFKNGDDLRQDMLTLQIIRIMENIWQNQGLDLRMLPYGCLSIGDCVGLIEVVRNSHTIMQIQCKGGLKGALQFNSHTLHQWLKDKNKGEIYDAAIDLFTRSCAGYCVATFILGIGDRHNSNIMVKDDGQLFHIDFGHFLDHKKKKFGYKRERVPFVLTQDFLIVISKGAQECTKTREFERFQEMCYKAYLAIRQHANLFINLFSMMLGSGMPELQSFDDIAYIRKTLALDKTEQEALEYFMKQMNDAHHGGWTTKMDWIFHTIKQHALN
PI3Kα, sequence (P27986 whole entry partner): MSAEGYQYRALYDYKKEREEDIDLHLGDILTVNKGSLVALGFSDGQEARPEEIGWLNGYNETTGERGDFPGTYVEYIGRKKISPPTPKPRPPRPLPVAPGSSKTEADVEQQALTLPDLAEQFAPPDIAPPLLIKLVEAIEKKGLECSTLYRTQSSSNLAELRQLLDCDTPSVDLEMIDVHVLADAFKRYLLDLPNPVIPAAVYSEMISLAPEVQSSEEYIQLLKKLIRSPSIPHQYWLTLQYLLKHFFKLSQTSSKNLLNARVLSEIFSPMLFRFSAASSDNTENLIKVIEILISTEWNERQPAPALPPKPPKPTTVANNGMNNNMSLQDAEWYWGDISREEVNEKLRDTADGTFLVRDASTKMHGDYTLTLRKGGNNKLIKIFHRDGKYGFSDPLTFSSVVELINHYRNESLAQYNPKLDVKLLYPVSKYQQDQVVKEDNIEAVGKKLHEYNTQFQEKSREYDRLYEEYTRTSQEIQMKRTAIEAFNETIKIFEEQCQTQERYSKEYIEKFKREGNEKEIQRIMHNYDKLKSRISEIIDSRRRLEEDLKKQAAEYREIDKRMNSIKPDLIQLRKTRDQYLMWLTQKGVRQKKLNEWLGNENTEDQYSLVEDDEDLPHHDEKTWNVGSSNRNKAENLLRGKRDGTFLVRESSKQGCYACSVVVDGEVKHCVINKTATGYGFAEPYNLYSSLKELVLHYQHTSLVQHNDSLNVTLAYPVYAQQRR
Turning to `CCN(CC)c1nc(N2CCOc3ccc(-c4ccc5nc(C)[nH]c5c4)cc3C2)c2ccccc2n1` [Compound 6], the IC50 was at least 2 µM.
Same read-out and setting: with `Cc1nc2ccc(-c3ccc4c(c3)CN(c3cc(-c5ccccc5)nc(-c5ccccc5)n3)CCO4)cc2[nH]1` [Compound 7] the figure was at least 2 µM; with `Cn1cnc2cc(-c3ccc4c(c3)CN(c3ccnc5ccccc35)CCO4)ccc21` [Compound 130, 7-(1-methyl-1H-benzimidazol-5-yl)-4-quinolin-4-yl-2,3,4,5-tetrahydro-1,4-benzoxazepine], 1 to 2 µM; with `Cc1nc2cc(-c3ccc4c(c3)CN(c3nc([C@@H]5CCCN5C(=O)OCc5ccccc5)nc5c3CC(C)(C)CC5)CCO4)cnc2[nH]1` [Compound 645, phenylmethyl (2S)-2-{6,6-dimethyl-4-[7-(2-methyl-3H-imidazo[4,5-b]pyridin-6-yl)-2,3-dihydro-1,4-benzoxazepin-4(5H)-yl]-5,6,7,8-tetrahydroquinazolin-2-yl}pyrrolidine-1-carboxylate], 1 to 2 µM.
